Data set [1] has as its target T1, plasma ADAMTS13 (Homo sapiens, UniProt Q76LX8).
T1 construct: from tissue; host or cells: human plasma or serum (pooled normal plasma, healthy donors, TTP patients)
T1 sequence (Q76LX8 75-1427): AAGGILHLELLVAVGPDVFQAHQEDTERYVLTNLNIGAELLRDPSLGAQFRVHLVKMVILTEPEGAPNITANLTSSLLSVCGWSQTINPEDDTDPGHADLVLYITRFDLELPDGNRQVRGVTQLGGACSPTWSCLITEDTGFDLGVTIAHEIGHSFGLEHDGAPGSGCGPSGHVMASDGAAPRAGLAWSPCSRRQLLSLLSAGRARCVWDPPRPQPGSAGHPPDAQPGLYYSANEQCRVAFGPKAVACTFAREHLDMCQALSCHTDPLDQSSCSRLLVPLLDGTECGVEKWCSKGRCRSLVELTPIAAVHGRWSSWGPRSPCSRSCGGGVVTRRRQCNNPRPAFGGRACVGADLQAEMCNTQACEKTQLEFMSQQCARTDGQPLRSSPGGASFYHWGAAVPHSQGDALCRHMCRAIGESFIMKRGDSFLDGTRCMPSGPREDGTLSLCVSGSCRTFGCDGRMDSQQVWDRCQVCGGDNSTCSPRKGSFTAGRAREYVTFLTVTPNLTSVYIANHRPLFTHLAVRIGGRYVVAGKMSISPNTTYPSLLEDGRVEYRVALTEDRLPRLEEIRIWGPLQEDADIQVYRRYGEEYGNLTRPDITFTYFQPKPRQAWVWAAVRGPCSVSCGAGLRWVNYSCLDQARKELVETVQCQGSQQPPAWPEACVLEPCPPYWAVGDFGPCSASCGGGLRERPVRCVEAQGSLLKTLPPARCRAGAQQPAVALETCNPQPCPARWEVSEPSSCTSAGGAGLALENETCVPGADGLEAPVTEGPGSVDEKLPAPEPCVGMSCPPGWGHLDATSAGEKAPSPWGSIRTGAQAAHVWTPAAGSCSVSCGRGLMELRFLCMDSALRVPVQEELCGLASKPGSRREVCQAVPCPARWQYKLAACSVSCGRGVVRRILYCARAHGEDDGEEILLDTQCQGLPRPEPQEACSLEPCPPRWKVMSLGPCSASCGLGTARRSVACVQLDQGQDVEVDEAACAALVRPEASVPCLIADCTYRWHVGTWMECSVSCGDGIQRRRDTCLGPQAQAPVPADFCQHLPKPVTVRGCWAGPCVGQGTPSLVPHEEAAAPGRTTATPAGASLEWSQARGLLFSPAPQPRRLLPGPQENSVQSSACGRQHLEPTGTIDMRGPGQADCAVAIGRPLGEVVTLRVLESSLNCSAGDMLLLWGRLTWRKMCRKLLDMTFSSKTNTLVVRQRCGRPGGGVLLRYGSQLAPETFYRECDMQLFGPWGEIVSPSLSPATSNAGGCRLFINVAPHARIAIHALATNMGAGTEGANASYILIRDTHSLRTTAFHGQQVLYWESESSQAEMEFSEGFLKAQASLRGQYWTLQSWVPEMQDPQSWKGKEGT
Put plainly: Kinetics of FRETS-rVWF71 cleavage by plasma ADAMTS13 (Michaelis-Menten). In kind it is biochemical. As to the method:
In these experiments, FRETS-rVWF71 cleavage by plasma ADAMTS13 (50 μL) was assessed in 200 μL reactions containing 50 mM HEPES, pH 7.4, 10 mM CaCl2, 150 mM NaCl, and 0.05% Tween-20, and varying concentrations of FRETS-rVWF71. The concentration of ADAMTS13 in PNP is ˜1.03 μg/ml (Feys, H. B., et al. J. Thromb. Haemost 4:955-62, 2006), or ˜6 nM for a molecular mass of 170 kDa. For each concentration of substrate, the relationship between product fluorescence and concentration was determined directly by cleaving FRETS-rVWF71 to completion with excess recombinant ADAMTS13 MDTCS (Feys, H. B., et al. J. Thromb. Haemost. 7:2088-95, 2009) and measuring the fluorescence. Control assays contained plasma that was completely deficient in ADAMTS13. The initial velocities (nM/min) as a function of substrate concentration were fitted to the Michealis-Menten equation by nonlinear regression analysis (Prism, GraphPad).
(FIG. 6). […] (Anderson, P. J., et al. J. Biol. Chem. 281:850-7, 2006).

Data set [2] deals with T2, ADAMTS13 (Homo sapiens, UniProt Q76LX8).
T2 sequence (Q76LX8 75-1427): T1 sequence (Q76LX8 75-1427)
Put plainly: ADAMTS13 activity of plasma samples with FRETS-rVWF71 substrate. In kind it is biochemical. On the set-up: from tissue; host or cells: human plasma or serum (pooled normal plasma, healthy donors, TTP patients). Conditions: samples from patients with idiopathic TTP. As to the method:
Assays were performed at 30° C. Samples (100 μL) of plasma or serum, diluted as necessary in assay buffer, were pipetted in duplicate in 96 well white microplates (Optiplate-96, PerkinElmer, Waltham, Mass.). Reaction was initiated by addition of 100 μL substrate in assay buffer. Cleavage of FRETS-rVWF71 was detected as an increase in fluorescence compared to control reactions without added enzyme at 2 min intervals using a Victor^2V Multilabel Counter (PerkinElmer, Waltham, Mass.) or Synergy H1 Hybrid Multi-Mode Microplate Reader (Biotek, Winooski, Vt.) equipped with 635±10 nm excitation and 660±10 nm emission filters. Initial velocities were determined by fitting progress curves to the polynomial ΔF=A+Bt+Ct^2, where ΔF is the change in fluorescence, t is time, A is the y-intercept, B is the initial velocity (slope), and the term Ct^2 accounts for any decline in velocity due to substrate consumption or photobleaching.
In these experiments, frozen Li^+-heparin plasma samples were obtained from 100 healthy controls (Biological Specialty Corp., Colmar, Pa.) deidentified except for demographic information on gender, age, and ethnicity. Pooled normal Li^+-heparin plasma (PNP) for assay standardization was prepared from at least 35 donors. […] activity of randomly selected controls samples was determined by the FRETS-VWF73 method. […]

* marks the point of attachment. X1 = CC1(C)C(/C=C/C2=C(Cl)C(=C/C=C3/N(CCCCCC(=O)*)c4ccc5cc(S(=O)(=O)O)ccc5c4C3(C)C)/CCC2)=[N+](CCCS(=O)(=O)[O-])c2ccc(N(CCCS(=O)(=O)O)CCCS(=O)(=O)O)cc21; X2 = CC(C)(C)c1cc(/C=C/C=C2\N(CCCS(=O)(=O)O)c3ccc(S(=O)(=O)O)cc3C2(C)CCCC(=O)CCN2C(=O)CC(*)C2=O)c2ccc(N(CCCS(=O)(=O)[O-])CCCS(=O)(=O)O)cc2[o+]1

“X1-GQAPNLVYMVTGC(X2)PASDEIRRLPGDIQVVPIGVGPNANVQELERIGWPNAPILIQDFETLPREAPDLVLQR [FRETS-rVWF71]”: the “decrease of the rate of catalysis relative to FRETS-VWF73” value in data set [1] (kcat compared with FRETS-VWF73) was roughly 8 fold. Also, in data set [1] (plasma ADAMTS13, 50 mM HEPES pH 7.4, 10 mM CaCl2, 150 mM NaCl, 30° C.), the kcat is 0.113 s⁻¹. For the same substance, the “sensitivity of ADAMTS13 activity assay relative to FRETS-VWF73” value in data set [2] amounted to 20 fold.

The kcat is the number of substrate molecules converted per active site and unit of time at saturation.
